Read-outs that look alike come from different tables or passages of the source.
What was measured:
[1] = cited from earlier work; for behaviour in an aqueous solution: GB2191695
[2] = system: micro-organisms as shown in the tables 10A-F; experiment: Efficacy of antimicrobial preservation, overall judgement; format: cell-based; conditions: Ph. Eur. 9.0, section 5.1.3; in oral levothyroxine solution
Description: Preservation Efficacy Tests […] As comparison, sample 1 of U.S. Pat. No. 9,345,722 has been prepared, in accordance with example 6 of U.S. Pat. No. 9,345,722. The test consists of challenging the sample solution with a prescribed inoculum of suitable micro-organisms as shown in the tables 10A-F, storing the inoculated solution at ambient temperature, avoiding sunlight, withdrawing samples from the container at specified intervals of time and counting the micro-organisms in the samples so removed. The preservative properties of the solution are adequate if, in the conditions of the test, there is a significant fall or no increase, as appropriate, in the number of micro-organisms in the inoculated solution after 14 and 28 days. ATCC stands for the deposit number of the micro-organism at the American Type Culture Collection ATCC.

| SMILES | efficacy of antimicrobial preservation in words [2] | further results |
| --- | --- | --- |
| N[C@@H](Cc1cc(I)c(Oc2cc(I)c(O)c(I)c2)c(I)c1)C(=O)[O-].[Na+] [Levothyroxine sodium, sodium (2S)-2-amino-3-[4-(4-hydroxy-3,5-diiodophenoxy)-3,5-diiodophenyl]-propanoate] |  | solubility in 96% ethanol ([1]; 96% ethanol): slightly soluble; solubility in water ([1]; water): very slightly soluble |
| O=C(O)c1ccccc1 [benzoic acid] | comply with the relevant criteria |  |
| N[C@@H](Cc1cc(I)c(Oc2cc(I)c(O)c(I)c2)c(I)c1)C(=O)O [levothyroxine, 3,5,3′,5′-tetraiodo-L-thyronine] |  | behaviour in an aqueous solution ([1]; pH 11-12): dissolves; behaviour in an aqueous solution ([1]; pH lowered further to pH 5-6): formation of a precipitate; behaviour in an aqueous solution ([1]; pH lowered to pH 7): white pale suspension |
| O=C([O-])c1ccccc1.[K+] [potassium benzoate] | results similar to that of sodium benzoate |  |
| C/C=C/C=C/C(=O)[O-].[K+] [potassium sorbate] | results similar to that of sorbic acid |  |
| O=C([O-])c1ccccc1.[Na+] [sodium benzoate] | comply with the relevant criteria |  |
| COC(=O)c1ccc(O)cc1.[Na] [sodium methyl paraben, sodium methyl parahydroxybenzoate] | less efficient preservative |  |
| C/C=C/C=C/C(=O)[O-].[Na+] [sodium sorbate] | results similar to that of sorbic acid |  |
| C/C=C/C=C/C(=O)O [sorbic acid] | comply with the relevant criteria |  |
